Data: patent US20210181109A1 (FUJIFILM Corporation, priority 2018, published 2021)
Structures can show the parent of a compound that is named as a salt. Where two headings read alike, the source gives them in different places.

Key:
[1] = Average score of NAC and NAL depletion and prediction of skin allergenicity, UV method; conditions: for Average score: test substance solution 1 mmol/L
Method in brief: (§1)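 Score is the mean of NAC and NAL depletion percentages, rounded at the second decimal place. Test substances classed as allergenic (S) or non-allergenic (NS) from depletion of NAC, NAL, or their average score.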

[2] = NAC depletion percent, HPLC-fluorescence detection
Method in brief: (§2)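 NAC at 5 μmol/L in pH 8.0 phosphate buffer reacted with test substance (1 mmol/L stock in water, acetonitrile, acetone or 5% DMSO/acetonitrile) 24 h at 25 °C in the dark, n=3. Stopped with TFA (0.5% final); unreacted NAC quantified by HPLC, depletion percent calculated against blank without test substance.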

[3] = cited from earlier work
[4] = NAL depletion percent, HPLC-fluorescence detection
Method in brief: (§3)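 NAL (5 μmol/L, pH 10.2 phosphate buffer) reacted with test substance (1 mmol/L stock in water, acetonitrile, acetone or 5% DMSO/acetonitrile) for 24 h at 25 °C in the dark; stopped with TFA to 0.5%. Unreacted NAL quantified by HPLC (UV or fluorescence), n=3; depletion % relative to substance-free blank.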

[5] = Average score of NAC and NAL depletion and prediction of skin allergenicity, fluorescence method; conditions: for Average score: test substance solution 1 mmol/L
Method in brief: as §1

[6] = NAC depletion percent, HPLC-UV detection (281 nm); conditions: Reference (UV method)
Method in brief: as §2

[7] = NAL depletion percent, HPLC-UV detection (281 nm); conditions: Reference (UV method)
Method in brief: as §3

[8] = single substance, Reference (UV method), criterion average score […]
[9] = single substance, Reference (UV method)
[10] = single substance, test substance solution 1 mmol/L, fluorescence method
[11] = known values, LLNA-test-based classification, − for non-allergenic substances
[12] = single substance, fluorescence method, criterion average score […]
[13] = single substance, fluorescence method
[14] = single substance, test substance solution 1 mmol/L
[15] = Fluorescence method, non-allergenic substance

Structure (SMILES)	Prediction result [1, 8]	Average score [1, 9]	NAC depletion (%) [2, 10]	EC3 (%) [3, 11]	NAL depletion (%) [4, 10]	Prediction result [5, 12]	Average score [5, 13]	NAC depletion (%) [6, 14]	NAL depletion (%) [7, 14]	Prediction result [1]	NAC depletion (%) [2, 15]	EC3 (%) ([3]; in vivo)	NAL depletion (%) [4, 15]	Prediction result [5]	NAC depletion (%) ([6]; non-allergenic substance)	NAL depletion (%) ([7]; non-allergenic substance)
CCOC(=O)/C=C\C(=O)OCC [Diethyl maleate]	S (S represents as being an allergenic substance)	19.8%	31.2%	5.8%	4.7%	S (S represents as being an allergenic substance)	18.0%	31.8%	7.7%							
c1ccc(COOCc2ccccc2)cc1 [Benzyl peroxide]	S (S represents as being an allergenic substance)	75.3%	100.0%	0.004%	63.7%	S (S represents as being an allergenic substance)	81.9%	100.0%	50.6%							
CCC/C=C/C=O [trans-2-Hexanal]	S (S represents as being an allergenic substance)	46.3%	97.9%	5.5%	11.4%	S (S represents as being an allergenic substance)	54.6%	80.4%	12.3%							
Clc1ccccc1 [Chlorobenzene]										NS (key: S represents as being an allergenic substance; NS represents as being a non-allergenic substance)	1.3%	−	0.1%	NS (key: S represents as being an allergenic substance; NS represents as being a non-allergenic substance)	0.0%	0.7%
O=CC=O [Glyoxal]		6.8%	24.9%		0.4%		12.7%	12.8%	0.8%	S (key: S represents as being an allergenic substance; NS represents as being a non-allergenic substance)		1.4%		S (key: S represents as being an allergenic substance; NS represents as being a non-allergenic substance)		
C=C(C)C(=O)OCCOC(=O)C(=C)C [Ethylene glycol dimethacrylate]	NS (NS represents as being a non-allergenic substance)	4.3%	7.3%	28%	1.5%	NS (NS represents as being a non-allergenic substance)	4.4%	5.9%	2.6%							
CCCCCCCCCCCCOC(=O)c1cc(O)c(O)c(O)c1 [Lauryl gallate]	S (S represents as being an allergenic substance)	59.5%	99.5%	0.3%	15.9%	S (S represents as being an allergenic substance)	57.7%	100.0%	19.0%							
O=C1C=CC(=O)C=C1 [p-Benzoquinone]	S (S represents as being an allergenic substance)	90.0%	100.0%	0.0099%	71.8%		85.9%	96.5%	83.5%					S (key: S represents as being an allergenic substance; NS represents as being a non-allergenic substance)		
CCC(=O)C=Cc1ccc(OC)cc1 [1-(4-Methoxyphenyl)-1-penten-3-one]	NS (NS represents as being a non-allergenic substance)	2.9%	1.2%	9.3%	0.4%	NS (NS represents as being a non-allergenic substance)	0.8%	1.6%	4.2%							
CC(=O)C=Cc1ccccc1 [Benzylideneacetone]	S (S represents as being an allergenic substance)	26.1%	67.3%	3.7%	10.0%	S (S represents as being an allergenic substance)	38.6%	44.9%	7.2%							
CC(C)(C)C(=O)CC(=O)C(C)(C)C [2,2,6,6-Tetramethyl-3,5-heptanedione]	NS (NS represents as being a non-allergenic substance)	1.1%	0.0%	27%	0.0%	NS (NS represents as being a non-allergenic substance)	0.0%	0.5%	1.6%							
CC(C=O)c1ccccc1 (centres unmarked) [2-Phenylpropionaldehyde]	S (S represents as being an allergenic substance)	6.3%	8.5%	6.3%	7.3%	S (S represents as being an allergenic substance)	7.9%	8.0%	4.6%							
O=CCCCC=O [Glutaraldehyde]	S (S represents as being an allergenic substance)	26.9%	0.0%	0.1%	47.4%	S (S represents as being an allergenic substance)	23.7%	0.8%	53.1%							
ClC(Cl)c1ccccc1 [Benzylidene dichloride]										NS (key: S represents as being an allergenic substance; NS represents as being a non-allergenic substance)	2.1%	−	1.4%	NS (key: S represents as being an allergenic substance; NS represents as being a non-allergenic substance)	0.9%	−0.3%
CCC=CC=CC=O [2,4-Heptadienal]	S (S represents as being an allergenic substance)	42.9%	46.2%	4%	11.8%	S (S represents as being an allergenic substance)	29.0%	35.8%	50.1%							
C=CC(=O)OCC [Ethyl acrylate]	S (S represents as being an allergenic substance)	50.8%	88.7%		10.6%	S (S represents as being an allergenic substance)	49.6%	87.8%	13.7%			28%				
